{
  "source": "patent US8333966B2",
  "about": "“CD37 immunotherapeutics and uses thereof” (Emergent Product Development Seattle, LLC, priority 2008, dated 2012)",
  "key": {"[1]": {"system": "DOHH2 human tumor xenografts", "conditions": "for Median Survival Time: CAS024 10 μg IV days 0, 4, 8, Bendamustine 10 mg/kg IP days 0, 2, 4, 7, 9, alone or combined; for clinical signs of toxicity: CAS024 10 μg IV, Bendamustine 10 mg/kg IP", "method": "Establishment of tumor xenografts and sorting into treatment groups. […] The tumor-bearing mice were sorted into five groups with equivalent mean tumor volumes (n=15 per group; 3 cages of 5 mice for each group).\nIn vivo treatment. Groups of mice were treated with an injection of 0.2 mL of PBS containing 10 μg huIgG (days 0, 4, 8 IV), 10 μg CAS024 (days 0, 4, 8 IV), 10 mg/kg Bendamustine (0, 2, 4, 7, 9 IP), or 10 μg CAS024 (days 0, 4, 8 IV) AND 10 mg/kg Bendamustine (0, 2, 4, 7, 9 IP).\nMonitoring and endpoints. Mice were monitored daily by visual inspection. […] Tumor volumes were calculated as described above."}, "[2]": {"experiment": "SMIP expression in transfected HEK293 cells, day 7 supernatants titered with Protein A sensor", "conditions": "supernatants day 7", "source_text": "CAS-024 and other CD37-specific binding SMIP molecules were produced by recombinant DNA technology and transfected into HEK293 cells for 7 days. Cell culture supernatants were harvested on day 7 and titered using Octec Q Protein A sensor."}, "CD37 on BJAB cells": {"molecular_target": "T1, CD37 on BJAB cells (Homo sapiens, UniProt P11049)", "T1 construct": "endogenous in cells; host or cells: BJAB cells", "T1 sequence (P11049 1-281)": "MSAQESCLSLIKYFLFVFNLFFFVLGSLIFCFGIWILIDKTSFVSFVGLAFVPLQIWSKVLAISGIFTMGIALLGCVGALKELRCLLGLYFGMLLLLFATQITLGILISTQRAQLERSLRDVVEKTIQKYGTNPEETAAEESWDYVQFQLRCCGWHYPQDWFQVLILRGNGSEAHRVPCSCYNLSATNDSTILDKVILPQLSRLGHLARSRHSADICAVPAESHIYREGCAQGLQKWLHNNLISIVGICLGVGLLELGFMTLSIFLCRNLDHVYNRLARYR", "experiment": "Competitive binding / cross blocking of FITC-conjugated anti-CD37 reagents on BJAB cells", "conditions": "unlabeled blocking reagent", "method": "FITC labeled antibody conjugates were titrated from 10 ng/mL to 10 μg/mL in an initial binding study to determine the optimal amount to use in the blocking studies. The level chosen was just below saturating amounts, and was kept constant in the subsequent assays, while levels of blocking antibody were increased over a 10-fold range. Data were plotted as percent of maximal binding versus concentration of blocking antibody, so that higher levels indicate less efficient blocking, while lower levels indicate more efficient blocking activity.\nFor competitive binding assays, 2.5×10^5 BJAB cells were incubated in 96-well V-bottom plates in staining media (PBS with 2% mouse sera) with the FITC-conjugated anti-CD37 mAbs at 1.25 μg/mL in the presence of unconjugated anti-CD37 MAb at the indicated concentrations (2.5, 1.25, 0.6, or 0.3 μg/ml) or staining media for 45 minutes on ice in the dark. Blocking antibodies and FITC labeled antibody conjugates were added to reactions prior to addition of cells. The cells were then washed […] with PBS and fixed with 1% paraformaldehyde (USB, Cleveland, Ohio). The treated cells were analyzed by flow cytometry using a FACsCalibur instrument and CellQuest software (BD Biosciences, San Jose, Calif.). […]"}, "[3]": {"experiment": "SMIP expression in transfected CHO cells, supernatants titered with Protein A sensor", "design": "species or system Chinese Hamster Ovary (CHO)", "conditions": "shake flasks, culture supernatants", "method": "CAS-024 and other CD37-specific binding SMIP molecules were cloned into a Chinese Hamster Ovary (CHO) mammalian cell expression system. Transfected CHO cells that produced the SMIP molecules were cultured in shake flasks and harvested cell culture supernatants were titered using Octec Q Protein A sensor."}, "CD37 on Ramos cells": {"molecular_target": "T2, CD37 on Ramos cells (Homo sapiens, UniProt P11049)", "T2 construct": "endogenous in cells; host or cells: Ramos cells", "T2 sequence (P11049 1-281)": "T1 sequence (P11049 1-281)", "experiment": "FMAT competition assay against FMAT Blue labeled CAS-006 for binding to Ramos cells", "source_text": "A competition assay was used to compare the binding affinity of different anti-CD37 specific small modular immunopharmaceutical (SMIP) molecules to CD-37 found on Ramos cells (a B-lymphoblastoid cell line derived from a Burkitt lymphoma). An SEC purified chimeric anti-CD37 SMIP molecule (CAS-006, SEQ ID NO:247) was labeled with the FMAT Blue® fluorescence dye (Applied Biosystems) and used as the standard to compete with purified unlabeled chimeric anti-CD37 SMIP molecule (positive control) and purified unlabeled humanized anti-CD37 SMIP test molecules. […] The plates were incubated at room temperature for 30 min and read on an 8200 Cellular Detection System (Applied Biosystems) gated for middle cell size and low signal.\nA competition assay as described in Example 4 was used to compare the binding affinity of different mouse-human hybrid anti-CD37 SMIP molecules compared to CAS-024 binding to Ramos cells. An SEC purified chimeric anti-CD37 SMIP molecule (CAS-006, SEQ ID NO:247) was labeled with the FMAT Blue® fluorescence dye (Applied Biosystems) and used as the standard to compete with purified unlabeled chimeric anti-CD37 SMIP molecule (CAS-006, positive control) and purified unlabeled humanized anti-CD37 SMIP test molecules—CAS-002 (SEQ ID NO:48), CAS-003 (SEQ ID NO:52), CAS-014 (SEQ ID NO:251), CAS-017 (SEQ ID NO:252), and CAS-024 (SEQ ID NO:253)."}, "[4]": {"system": "human tumor (DOHH2) xenograft", "experiment": "Single agent efficacy in established DOHH2 xenograft model in SCID mice", "assay_type": "in vivo", "conditions": "for Death (other than for Tumor Size Sacrifice) / Median Survival Time: 200 μg IP days 0, 4, 8, cumulative 600 μg; for mean tumor volume compared with human IgG treated group: day 4 through day 11", "method": "Mice were monitored daily by visual inspection. […] Tumor volumes were calculated as described above. Tumor volumes on the last day that all mice were alive in each group were also expressed in terms of tumor volumes relative to day 0, using the formula: Relative tumor volume on day of interest=(volume on day of interest−volume on day 0)volume on day 0"}, "[5]": {"system": "human tumor (DOHH2) xenograft", "experiment": "Dose response in established subcutaneous DOHH2 xenograft model in SCID mice", "assay_type": "in vivo", "method": "Mice were monitored daily by visual inspection. […] Tumor volumes were calculated as described above."}, "[6]": {"conditions": "3 μg IP days 0, 4, 8, cumulative 9 μg"}, "[7]": {"conditions": "10 μg IP days 0, 4, 8, cumulative 30 μg"}, "[8]": {"conditions": "30 μg IP days 0, 4, 8, cumulative 90 μg"}, "[9]": {"conditions": "100 μg IP days 0, 4, 8, cumulative 300 μg"}},
  "note": "Entries after “also recorded” stand apart in the source; their conditions may differ. Marks after values point to notes of the source that are not given here.",
  "data": [
    {"molecule": "Cn1c(CCCC(=O)O)nc2cc(N(CCCl)CCCl)ccc21", "note": "[Bendamustine, 4-[5-[Bis(2-chloroethyl)amino]-1-methylbenzimidazol-2-yl]butanoic acid, reference compound]", "values": [
      {"measurement": "Median Survival Time", "setting": "[1]", "result": 17, "unit": "days"},
      {"measurement": "clinical signs of toxicity", "setting": "[1]", "result": "scruffy coats and diarrhea"}
    ]},
    {"molecule": "CAS-006: chimeric anti-CD37 SMIP protein (mVLmVH) with variable regions from mouse mAb G28-1, SEQ ID NO:247", "values": [
      {"measurement": "Protein Titer", "setting": "[2]", "result": 9.3, "unit": "µg/mL"},
      {"measurement": "blocking activity (inhibition of binding of FITC-conjugated anti-CD37)", "setting": "CD37 on BJAB cells", "result": "highest level of blocking activity"}
    ]},
    {"molecule": "G28-1 VH (M99F, Y102S)-VL (T25A) scFv (SSC-P) H WCH2 WCH3 [CAS-024]", "values": [
      {"measurement": "Protein Titer", "setting": "[2]", "result": 12.7, "unit": "µg/mL"},
      {"measurement": "Protein Titer Range", "setting": "[3]", "result": "500 to 650", "unit": "µg/mL"},
      {"measurement": "greater affinity for CD37 than humanized VLVH SMIP molecules with 16 amino acid linker", "setting": "CD37 on Ramos cells; Ramos cells", "result": "≤ 4", "unit": "fold"},
      {"measurement": "affinity for CD37 compared with parent chimeric CAS-006", "setting": "CD37 on Ramos cells; competition with labeled CAS-006, Ramos cells", "result": "substantially the same affinity; also recorded: same binding affinity"},
      {"measurement": "Death (other than for Tumor Size Sacrifice)", "setting": "[4]", "result": "1/15^f"},
      {"measurement": "Median Survival Time", "setting": "[4]", "result": "Undefined^d, e"},
      {"measurement": "mean tumor volume compared with human IgG treated group", "setting": "[4]", "result": "significantly lower"},
      {"measurement": "Median Survival Time", "setting": "[1]", "result": "17^b Days"},
      {"measurement": "clinical signs of toxicity", "setting": "[1]", "result": "No clinical signs of toxicity"},
      {"measurement": "Death (Not Due to Large Tumor Volume)", "setting": "[5]; [6]", "result": "0/14"},
      {"measurement": "Median Survival Time", "setting": "[5]; [6]", "result": 19, "unit": "days"},
      {"measurement": "Death (Not Due to Large Tumor Volume)", "setting": "[5]; [7]", "result": "0/14"},
      {"measurement": "Median Survival Time", "setting": "[5]; [7]", "result": 28, "unit": "days"},
      {"measurement": "Death (Not Due to Large Tumor Volume)", "setting": "[5]; [8]", "result": "0/14"},
      {"measurement": "Median Survival Time", "setting": "[5]; [8]", "result": 35, "unit": "days"},
      {"measurement": "Death (Not Due to Large Tumor Volume)", "setting": "[5]; [9]", "result": "1/14^h"},
      {"measurement": "Median Survival Time", "setting": "[5]; [9]", "result": "Undefined"},
      {"measurement": "Death (Not Due to Large Tumor Volume)", "setting": "[5]; 200 μg IP days 0, 4, 8, cumulative 600 μg", "result": "0/14"},
      {"measurement": "effect on the growth of DOHH2 tumors", "setting": "[5]; 3 to 200 μg IP days 0, 4, 8", "result": "dose-dependent inhibitory effect"}
    ]},
    {"molecule": "Rituxan: anti-CD20 treatment used as single agent comparator [reference compound]", "values": [
      {"measurement": "Death (other than for Tumor Size Sacrifice)", "setting": "[4]", "result": "0/15"},
      {"measurement": "Median Survival Time", "setting": "[4]", "result": 43, "unit": "days"},
      {"measurement": "mean tumor volume compared with human IgG treated group", "setting": "[4]", "result": "significantly lower"}
    ]}
  ]
}
